Data on 19 compounds can be found in ChEMBL document CHEMBL2086309, “Discovery of liver selective non-steroidal glucocorticoid receptor antagonist as novel antidiabetic agents” (Bioorg Med Chem Lett, 2012).

For assay [1], the target named is T1, Glucocorticoid receptor (Homo sapiens, UniProt P04150).
T1 sequence (P04150 whole entry): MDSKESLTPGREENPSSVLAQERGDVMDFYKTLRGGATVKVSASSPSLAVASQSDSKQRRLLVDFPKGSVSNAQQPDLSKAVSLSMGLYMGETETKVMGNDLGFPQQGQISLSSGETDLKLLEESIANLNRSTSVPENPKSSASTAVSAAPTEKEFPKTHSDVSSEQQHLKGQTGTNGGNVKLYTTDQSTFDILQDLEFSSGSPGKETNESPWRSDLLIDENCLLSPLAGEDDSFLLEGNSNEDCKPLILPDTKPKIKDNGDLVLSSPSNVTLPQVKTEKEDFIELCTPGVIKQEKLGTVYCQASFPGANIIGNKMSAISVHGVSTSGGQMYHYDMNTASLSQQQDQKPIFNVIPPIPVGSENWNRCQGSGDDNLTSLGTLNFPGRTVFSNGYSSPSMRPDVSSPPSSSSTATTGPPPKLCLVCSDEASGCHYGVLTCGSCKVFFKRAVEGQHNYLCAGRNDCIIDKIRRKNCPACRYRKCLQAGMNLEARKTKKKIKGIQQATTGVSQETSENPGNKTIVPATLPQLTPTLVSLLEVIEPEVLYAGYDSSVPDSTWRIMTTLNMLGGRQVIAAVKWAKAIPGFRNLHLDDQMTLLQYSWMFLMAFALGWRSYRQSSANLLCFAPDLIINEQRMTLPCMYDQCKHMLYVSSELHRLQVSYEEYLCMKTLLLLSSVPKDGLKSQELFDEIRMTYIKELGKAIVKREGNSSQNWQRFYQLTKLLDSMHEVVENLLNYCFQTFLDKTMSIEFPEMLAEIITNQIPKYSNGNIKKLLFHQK
In words: Displacement of [3H]dexamethasone from human glucocorticoid receptor expressed in baculovirus infected Sf9 cells after overnight incubation by scintillation counting.

Assay [2] deals with T1, Glucocorticoid receptor. Kind of assay: Antagonist activity at human glucocorticoid receptor expressed in GRAF cells assessed as inhibition of dexamethasone-induced alkaline phosphatase expression after 48 hrs by reporter gene assay. The class given is functional, cell-based. (A reporter such as luciferase makes a cellular process visible.)
The target in assay [3] is T2, Glucocorticoid receptor (Rattus norvegicus, UniProt P06536).
T2 sequence (P06536 whole entry): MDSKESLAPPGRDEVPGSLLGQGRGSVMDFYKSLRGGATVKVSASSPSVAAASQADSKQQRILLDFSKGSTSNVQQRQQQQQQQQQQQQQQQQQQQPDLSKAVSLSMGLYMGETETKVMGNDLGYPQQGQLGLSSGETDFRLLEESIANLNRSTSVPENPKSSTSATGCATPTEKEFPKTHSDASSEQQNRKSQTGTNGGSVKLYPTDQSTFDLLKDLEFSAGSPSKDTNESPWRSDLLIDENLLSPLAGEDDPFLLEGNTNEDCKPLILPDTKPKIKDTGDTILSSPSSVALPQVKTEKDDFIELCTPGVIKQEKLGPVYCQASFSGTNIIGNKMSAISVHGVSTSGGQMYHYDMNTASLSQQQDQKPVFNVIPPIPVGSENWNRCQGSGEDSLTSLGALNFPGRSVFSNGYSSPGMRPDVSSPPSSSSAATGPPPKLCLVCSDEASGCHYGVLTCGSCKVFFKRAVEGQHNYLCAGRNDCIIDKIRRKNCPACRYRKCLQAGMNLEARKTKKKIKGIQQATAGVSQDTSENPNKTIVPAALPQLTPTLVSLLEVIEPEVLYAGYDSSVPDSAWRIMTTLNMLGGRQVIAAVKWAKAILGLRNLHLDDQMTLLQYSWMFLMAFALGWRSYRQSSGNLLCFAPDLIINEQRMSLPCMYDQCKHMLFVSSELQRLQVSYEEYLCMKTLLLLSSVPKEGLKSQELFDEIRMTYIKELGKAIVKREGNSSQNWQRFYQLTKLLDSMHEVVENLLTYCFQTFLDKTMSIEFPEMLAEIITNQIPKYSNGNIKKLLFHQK
In words: Antagonist activity at glucocorticoid receptor in rat hepatocytes assessed as inhibition of dexamethasone-induced […] expression incubated for 30 mins prior to dexamethasone-induction measured after 4 hrs by reporter gene assay. It is filed as functional, cell-based, Hepatocyte.

For assay [4], the target named is T1, Glucocorticoid receptor. Kind of assay: Displacement of [3H]dexamethasone from human glucocorticoid receptor expressed in baculovirus infected Sf9 cells after 16-18 hrs by beta counting. (In a radioligand displacement assay an active substance lowers the binding of a labelled ligand.)
For assay [5], the target named is T1, Glucocorticoid receptor. In words: Antagonist activity at human glucocorticoid receptor expressed in CHOK1 cells assessed as inhibition of dexamethasone-induced alkaline phosphatase expression after 46 hrs by reporter gene assay. The class given is functional, cell-based, CHO-K1.
For assay [6], the target named is T2, Glucocorticoid receptor. Kind of assay: Antagonist activity at glucocorticoid receptor in rat H4IIE cells assessed as inhibition of dexamethasone-induced […] expression after 24 hrs by reporter gene assay. The class given is functional, cell-based.

Usually IC50 stands for the concentration at which inhibition is half-maximal. On to `O=C(O)Cc1cc(Br)c(N(Cc2ccc(Oc3ccc(Br)cc3Br)cc2)Cc2cc(F)cc(F)c2)c(Br)c1`, for which the concentration for half-maximal inhibition (IC50) in assay [1] was 0.879 µM; in assay [2], 1.42 µM; in assay [3], over 10 µM.

`Cc1ccc(Oc2ccc(CN(Cc3cc(F)cc(F)c3)c3c(Br)cc(CC(=O)O)cc3Br)cc2)c(C)c1`: the IC50 in assay [1] was 1.64 µM.

For the compound `O=C(O)Cc1cc(Br)c(N(Cc2ccc(Oc3ccccc3)cc2)Cc2cccc(F)c2)c(Br)c1`, the IC50 in assay [1] is 0.82 µM.

In assay [1], `COc1ccccc1Oc1ccc(CN(Cc2cc(F)cc(F)c2)c2c(Br)cc(CC(=O)O)cc2Br)cc1` showed an IC50 of 1.26 µM.

Take `O=C(O)Cc1cc(Br)c(N(Cc2ccc(Oc3ccccc3Br)cc2)Cc2cc(F)cc(F)c2)c(Br)c1`: the IC50 in assay [1] is 0.801 µM; in assay [2], 1.17 µM; in assay [3], over 10 µM.

As for `O=C(O)c1ccc(N(Cc2ccccc2)Cc2ccc(Oc3ccccc3)cc2)cc1`, the IC50 in assay [1] is over 9 µM.

In assay [1], `O=C(O)Cc1ccc(N(Cc2ccccc2)Cc2ccc(Oc3ccccc3)cc2)cc1` yielded an IC50 of 1.91 µM.

For `O=C(O)Cc1cc(Br)c(N(Cc2ccc(Oc3ccccc3)cc2)Cc2cc(F)cc(F)c2)c(Br)c1`, the IC50 stood at 0.722 µM in assay [1], 1.05 µM in assay [2] and 3.9 µM in assay [3].

As to `O=C(O)Cc1cc(Br)c(N(Cc2ccccc2)Cc2ccc(Oc3ccccc3)cc2)c(Br)c1`, the IC50 in assay [1] worked out at 1.2 µM.

Take `O=C(O)Cc1cc(Br)c(N(Cc2ccc(Oc3ccc(Cl)cc3Cl)cc2)Cc2cc(F)cc(F)c2)c(Br)c1`: the figures for the IC50 in assay [1], in assay [2] and in assay [3] were 0.096 µM, 0.391 µM and 2.6 µM, respectively.

As for `O=C(O)Cc1cc(Br)c(N(Cc2ccc(Oc3ccc(C(F)(F)F)cc3C(F)(F)F)cc2)Cc2cc(F)cc(F)c2)c(Br)c1`, the IC50 in assay [1] amounted to 0.111 µM; in assay [2], 0.421 µM; in assay [3] it was 2.9 µM.

For `COc1cc(C(=O)c2cccc(C)c2)c(Oc2c(Br)cc(CC(=O)O)cc2Br)cc1C(C)C`, the IC50 in assay [1] was 0.02 µM; in assay [2], 0.41 µM; in assay [3] it was 2.49 µM; in assay [4], 0.019 µM; in assay [5], 0.4 µM; in assay [6], 2.5 µM.

Take `Cc1c(NS(C)(=O)=O)cccc1N(Cc1ccc(Oc2ccc(F)c(OCC(=O)O)c2)cc1)Cc1cc(F)cc(F)c1`: the IC50 in assay [1] amounted to 0.0046 µM; in assay [2] it was 0.432 µM; in assay [3], 1.88 µM.

`Cc1ccccc1Oc1ccc(CN(Cc2cc(F)cc(F)c2)c2c(Br)cc(CC(=O)O)cc2Br)cc1` yielded an IC50 in assay [1] of 1.28 µM.

Take `O=C(O)Cc1cc(Br)c(N(Cc2ccc(Oc3ccccc3Cl)cc2)Cc2cc(F)cc(F)c2)c(Br)c1`: the IC50 in assay [1] is 0.235 µM; in assay [2], 0.512 µM; in assay [3] it was 3 µM.

In assay [1], `c1ccc(CN(Cc2ccc(Oc3ccccc3)cc2)c2ccccc2)cc1` yielded an IC50 of over 10 µM.

Consider `COc1ccc(Oc2ccc(CN(Cc3cc(F)cc(F)c3)c3c(Br)cc(CC(=O)O)cc3Br)cc2)c(OC)c1`, for which the IC50 in assay [1] amounted to 1.6 µM.

On to `O=C(O)Cc1cc(Br)c(N(Cc2ccc(Oc3ccccc3F)cc2)Cc2cc(F)cc(F)c2)c(Br)c1`, for which the IC50 stood at 0.145 µM in assay [1], 0.046 µM in assay [2] and 2.1 µM in assay [3].

As for `O=C(O)Cc1cc(Br)c(N(Cc2ccc(Oc3ccccc3C(F)(F)F)cc2)Cc2cc(F)cc(F)c2)c(Br)c1`, the 50% inhibitory concentration (IC50) in assay [1] came to 0.298 µM; in assay [2] it was 0.598 µM; in assay [3], 3.3 µM.
